According to US8293732B2, “Antibacterial quinoline derivatives” (Janssen Pharmaceutica N.V., priority 2006, dated 2012):
In brackets after ≈: the same amount, converted by molar mass.

How the values were obtained:
[1] = system: Staphylococcus aureus (ATCC29213); assay: In-vitro anti-bacterial microtitre plate assay, IC90 determination (STA 1 B29213); type: cell-based; conditions: 90% inhibitory concentration for bacterial growth, 37° C., resazurin fluorescence; for IC90 values STA 1 B29213: 24 hours; for IC90: Staphylococcus aureus, ATCC29213, 24 h
Experimental: (§1) The bacteria used in this study were grown overnight in flasks containing 100 ml Mueller-Hinton Broth (Becton Dickinson—cat. no. 275730) in sterile de-ionized water, with shaking, at 37° C. Stocks (0.5 ml/tube) were stored at −70° C. until use. Bacteria titrations were performed in microtiter plates to detect the TCID50, in which the TCID50 represents the dilution that gives rise to bacterial growth in 50% of inoculated cultures.
(§2) In general, an inoculum level of approximately 100 TCID50 was used for susceptibility testing.
(§3) Flat-bottom, sterile 96-well plastic microtiter plates were filled with 180 μl of sterile deionized water, supplemented with 0.25% BSA. Subsequently, stock solutions (7.8× final test concentration) of compounds were added in 45 μl volumes in column 2. Serial five-fold dilutions (45 μl in 180 μl) were made directly in the microtiter plates from column 2 to reach column 11. Untreated control samples with (column 1) and without (column 12) inoculum were included in each microtiter plate. Depending on the bacteria type, approximately 10 to 60 CFU per well of bacteria inoculum (100 TCID50), in a volume of 100 μl in 2.8× Mueller-Hinton broth medium, was added to the rows A to H, except column 12. The same volume of broth medium without inoculum was added to column 12 in row A to H. The cultures were incubated at 37° C. for 24 hours under a normal atmosphere (incubator with open air valve and continuous ventilation). At the end of incubation, one day after inoculation, the bacterial growth was quantitated fluorometrically. Therefore resazurin (0.6 mg/ml) was added in a volume of 20 μl to all wells 3 hours after inoculation, and the plates were re-incubated overnight. A change in colour from blue to pink indicated the growth of bacteria. The fluorescence was read in a computer-controlled fluorometer (Cytofluor Biosearch) at an excitation wavelength of 530 nm and an emission wavelength of 590 nm. The % growth inhibition achieved by the compounds was calculated according to standard methods.
(§4) STA 29213 means Staphylococcus aureus (ATCC29213); SPN 6305 means Streptococcus pneumoniae (ATCC6305); MSM 607 means M. Smegmatis (ATCC607); ATCC means […].

[2] = system: Streptococcus pneumoniae (ATCC6305); assay: In-vitro anti-bacterial microtitre plate assay, IC90 determination (SPN 1 6305); type: cell-based; conditions: 90% inhibitory concentration for bacterial growth, 37° C., resazurin fluorescence; for IC90 values SPN 1 6305: 24 hours; for IC90: Streptococcus pneumoniae, ATCC6305, 24 h
Experimental: as §1, §2, §3, §4

M. Smegmatis (ATCC607) = assay: In-vitro anti-bacterial activity against strain M. Smegmatis ATCC607; type: cell-based; conditions: 90% inhibitory concentration for bacterial growth, 37° C., Alamar Blue fluorescence; for IC90 values MSM 1 ATCC607: 48 hours; for IC90: Mycolicibacterium smegmatis, ATCC607, 48 h, read-out: IC90 values MSM 1 ATCC607
Experimental: Flat-bottom, sterile 96-well plastic microtiter plates were filled with 180 μl of sterile deionized water, supplemented with 0.25% BSA. Subsequently, stock solutions (7.8× final test concentration) of compounds were added in 45 μl volumes to a series of duplicate wells in column 2 so as to allow evaluation of their effects on bacterial growth. Serial five-fold dilutions (45 μl in 180 μl) were made directly in the microtiter plates from column 2 to 11 using a customised robot system (Zymark Corp., Hopkinton, Mass.). Pipette tips were changed after every 3 dilutions to minimize pipetting errors with high hydrophobic compounds. Untreated control samples with (column 1) and without (column 12) inoculum were included in each microtiter plate. Approximately 250 CFU per well of bacteria inoculum, in a volume of 100 μl in 2.8× Mueller-Hinton broth medium, was added to the rows A to H, except column 12. The same volume of broth medium without inoculum was added to column 12 in row A to H. The cultures were incubated at 37° C. for 48 hours in a humidified 5% CO2 atmosphere (incubator with open air valve and continuous ventilation). At the end of incubation, two days after inoculation, the bacterial growth was quantitated fluorometrically. Therefore Alamar Blue (10×) was added to all wells in a volume of 20 μl and plates were incubated for another 2 hours at […]
The fluorescence was read in a computer-controlled fluorometer (Cytofluor, Biosearch) at an excitation wavelength of 530 nm and an emission wavelength of 590 nm (gain 30).
as §4

Row | SMILES | IC90 values STA 1 B29213 [1] [µg/mL] | IC90 values SPN 1 6305 [2] [µg/mL] | IC90 values MSM 1 ATCC607 (M. Smegmatis (ATCC607)) [µg/mL] | melting point [°C] | IC90 [1] [µg/mL] | IC90 [2] [µg/mL] | IC90 (M. Smegmatis (ATCC607)) [µg/mL]
1 | COc1nc2ccccc2cc1C(c1ccc(-c2ccoc2)cc1)C(O)(CCCCN(C)C)c1ccc2ccccc2c1 (single isomer, unassigned) [Compound 13] | 1.8 (≈ 3.15 µM) | 2.0 (≈ 3.5 µM) | 1.3 (≈ 2.28 µM) | 197 | – | – | –
2 | COc1nc2ccccc2cc1C(c1ccc(-c2cnn(C)c2)cc1)C(O)(CCCCN(C)C)c1ccc2ccccc2c1 (single isomer, unassigned) [Compound 10] | – | – | 0.4 (≈ 0.684 µM) | 190 | 1.9 (≈ 3.25 µM) | 1.9 (≈ 3.25 µM) | –
3 | COc1nc2ccccc2cc1C(c1ccc(-c2ccncc2)cc1)C(O)(CCCCN(C)C)c1ccc2ccccc2c1 (single isomer, unassigned) [Compound 48] | 1.84 (≈ 3.16 µM) | – | 1.04 (≈ 1.79 µM) | 210 | – | – | –
4 | COc1nc2ccccc2cc1C(c1cccc(-c2cnc3ccccc3c2)c1)C(O)(CCCCN(C)C)c1ccc2ccccc2c1 (single isomer, unassigned) [Compound 16] | – | – | – | 141 | 2 (≈ 3.17 µM) | 2 (≈ 3.17 µM) | 2 (≈ 3.17 µM)
5 | COc1nc2ccc(Br)cc2cc1C(c1ccccc1)C(O)(CCCCN(C)C)COc1ccc(C)cc1 (single isomer, unassigned) [Compound 6] | 9.2 (≈ 15.9 µM) | 5.2 (≈ 9 µM) | 1.8 (≈ 3.12 µM) | 130 | – | – | –
6 | COc1nc2ccc(Br)cc2cc1C(c1ccccc1)C(O)(CCCCN(C)C)COc1ccccc1 (single isomer, unassigned) [Compound 2] | 4.5 (≈ 7.99 µM) | 2.2 (≈ 3.9 µM) | 1.8 (≈ 3.19 µM) | 151 | – | – | –
7 | COc1nc2ccc(Br)cc2cc1C(c1ccccc1)C(O)(CCCCN1CCCCC1)COCc1ccccc1 (single isomer, unassigned) [Compound 25] | 2.5 (≈ 4.05 µM) | 2.0 (≈ 3.24 µM) | 2.0 (≈ 3.24 µM) | – | – | – | –
8 | COc1nc2ccc(Br)cc2cc1C(c1ccccc1)C(O)(CCCCN1CCCCC1)COCc1ccccc1 (single isomer, unassigned) [Compound 26] | – | – | – | – | 2 (≈ 3.24 µM) | 2 (≈ 3.24 µM) | 2 (≈ 3.24 µM)
9 | COc1nc2ccc(Br)cc2cc1C(c1ccccc1)C(O)(CCCCN(C)C)COc1ccc(C)cc1 (single isomer, unassigned) [Compound 5] | 4.1 (≈ 7.1 µM) | – | – | 146 | – | 4.1 (≈ 7.1 µM) | 1.8 (≈ 3.12 µM)
10 | COc1nc2ccc(Br)cc2cc1C(c1ccccc1)C(O)(CCCCN1CCN(C)CC1)COCc1ccccc1 (single isomer, unassigned) [Compound 28] | 10.0 (≈ 15.8 µM) | 12.6 (≈ 19.9 µM) | 4.5 (≈ 7.11 µM) | 122 | – | – | –
11 | COc1nc2ccc(Br)cc2cc1C(c1ccoc1)C(O)(CCc1ccc(F)cc1)CCN(C)C (single isomer, unassigned) [Compound 53] | – | – | – | 122 | 8.58 (≈ 15.8 µM) | – | 1.71 (≈ 3.16 µM)
12 | COc1nc2ccc(Br)cc2cc1C(c1ccc(Cl)cc1)C(O)(CCCCN1CCN(C)CC1)COc1ccccc1 (single isomer, unassigned) [Compound 21] | 2.1 (≈ 3.22 µM) | 2.6 (≈ 3.98 µM) | 2.1 (≈ 3.22 µM) | – | – | – | –
13 | COc1nc2ccc(Br)cc2cc1C(c1ccc(Cl)cc1)C(O)(CCCCN(C)C)COc1ccccc1 (single isomer, unassigned) [Compound 4] | 1.9 (≈ 3.18 µM) | 2.4 (≈ 4.01 µM) | 1.9 (≈ 3.18 µM) | 118 | – | – | –
14 | COc1nc2ccc(Br)cc2cc1C(c1ccc(Cl)cc1)C(O)(CCCCN1CCN(C)CC1)COc1ccccc1 (single isomer, unassigned) [Compound 22] | 32.7 (≈ 50.1 µM) | 11.6 (≈ 17.8 µM) | 8.2 (≈ 12.6 µM) | 158 | – | – | –
15 | COc1nc2ccccc2cc1C(c1ccc(-c2cccs2)cc1)C(O)(CCCCN(C)C)c1ccc2ccccc2c1 (single isomer, unassigned) [Compound 14] | – | – | – | – | 1.9 (≈ 3.24 µM) | 2.3 (≈ 3.92 µM) | 1.9 (≈ 3.24 µM)
16 | COc1nc2ccc(Br)cc2cc1C(c1ccccc1)C(O)(CCCCN1CCN(C)CC1)COc1ccc(C)cc1 (single isomer, unassigned) [Compound 24] | 39.9 (≈ 63.1 µM) | 10.0 (≈ 15.8 µM) | 10.0 (≈ 15.8 µM) | 168 | – | – | –
17 | COc1nc2ccc(Br)cc2cc1C(c1ccccc1)C(O)(CCCCN1CCN(C)CC1)COc1ccccc1 (single isomer, unassigned) [Compound 20] | 49.1 (≈ 79.4 µM) | 9.8 (≈ 15.8 µM) | 9.8 (≈ 15.8 µM) | 144 | – | – | –
18 | COc1nc2ccc(Br)cc2cc1C(c1ccc(Cl)cc1)C(O)(CCCCN(C)C)COc1ccccc1 (single isomer, unassigned) [Compound 3] | 9.5 (≈ 15.9 µM) | 11.9 (≈ 19.9 µM) | – | – | – | – | 1.7 (≈ 2.84 µM)
19 | COc1nc2ccc(Br)cc2cc1C(c1ccccc1)C(O)(CCCCN1CCN(C)CC1)COCc1ccccc1 (single isomer, unassigned) [Compound 27] | 4.5 (≈ 7.11 µM) | 2.2 (≈ 3.48 µM) | 2.0 (≈ 3.16 µM) | – | – | – | –
20 | COc1nc2ccc(Br)cc2cc1C(c1ccc2c(c1)OCO2)C(O)(CCN(C)C)c1ccccc1 (single isomer, unassigned) [Compound 30] | 55.0 (≈ 100 µM) | 1.7 (≈ 3.09 µM) | 0.4 (≈ 0.728 µM) | 159 | – | – | –
21 | COc1nc2ccc(Br)cc2cc1C(c1ccccc1)C(O)(CCCCN(C)C)COc1ccccc1 (single isomer, unassigned) [Compound 1] | – | 8.9 (≈ 15.8 µM) | – | 148 | 8.9 (≈ 15.8 µM) | – | 2.2 (≈ 3.9 µM)
22 | COc1nc2ccccc2cc1C(c1cccc(-c2ccncc2)c1)C(O)(CCCCN(C)C)c1ccc2ccccc2c1 (single isomer, unassigned) [Compound 8] | 9.2 (≈ 15.8 µM) | – | – | – | – | 1.8 (≈ 3.09 µM) | 1.8 (≈ 3.09 µM)
23 | COc1nc2ccc(Br)cc2cc1C(c1ccc2c(c1)OCO2)C(O)(CCN(C)C)c1ccccc1 (single isomer, unassigned) [Compound 29] | 3.1 (≈ 5.64 µM) | 0.4 (≈ 0.728 µM) | 1.7 (≈ 3.09 µM) | – | – | – | –
24 | COc1nc2ccc(Br)cc2cc1C(c1ccccc1)C(O)(CCCCN(C)C)c1cccc(/C=C/c2ccccc2)c1 (single isomer, unassigned) [Compound 41] | – | 2.01 (≈ 3.16 µM) | 0.40 (≈ 0.629 µM) | – | 2.01 (≈ 3.16 µM) | – | –
25 | COc1nc2ccc(Br)cc2cc1C(c1ccccc1)C(O)(CCCCN(C)C)c1cccc(-c2ccccc2)c1 (single isomer, unassigned) [Compound 32] | 1.93 (≈ 3.17 µM) | 1.93 (≈ 3.17 µM) | 0.97 (≈ 1.59 µM) | – | – | – | –
